Reference: patent publication US4358461A, “Antiallergic agent” (Takeda Chemical Industries, Ltd., priority 1980, dated 1982)

System: SRS-A
Test: Inhibitory action on the generation and release of SRS-A (sensitized guinea pig lung fragment; method of Orange and Moore, SRS-A assayed by method of Brocklehurst)
Type: cell-based, guinea pig (Hartley strain)
Conditions: egg albumin antigen
Excerpt: The action of the antiallergic agent of this invention to inhibit the production of SRS-A was investigated by the method of Orange and Moore [J. Immunol.

## baicalein phosphate disodium [BPS]
Concentration 10 (so in the source)
  Inhibitory action (percent inhibition of generation and release of SRS-A due to antigen-antibody interaction): 18.7 ± 6.6%
Concentration 100 (so in the source)
  Inhibitory action (percent inhibition of generation and release of SRS-A due to antigen-antibody interaction): 50.8 ± 10.7%
